For the data set the following is noted: instrument: TW, calibrated with polyalanine and drug standards.

Values joined by “and” are separate entries in the source; they are usually repeats but may differ in a detail not shown here. Equal values may be shown once. Where a name gives a salt, the structure may show the parent alone.

Regarding `CC(C)C[C@H](NC(=O)[C@H](C)N)C(=O)O` [ALANYL-dl-LEUCINE], the “collision cross section (N2)” value ([M+H]+) amounted to 152.5 Å².
Still for that read-out and setting: the value for `NCCCNCCSP(=O)(O)O` [AMIFOSTINE] was 146.9 Å²; that for `Nc1cc(-c2ccncc2)c[nH]c1=O` [AMRINONE] was 139 Å²; that for `COc1ccc2c(=O)c(CC(=O)O)coc2c1` [ANHYDROBRAZILIC ACID] was 143.1 Å².
`CN1C2C[C@H](OC(=O)[C@H](CO)c3ccccc3)C[C@H]1[C@@H](O)C2` [ANISODAMINE HYDROBROMIDE]: the “collision cross section (N2)” value ([M+H]+) worked out at 171.1 Å².
For the compound `O=c1cc(-c2ccc(O)cc2)oc2cc(O[C@@H]3O[C@H](CO)[C@@H](O)[C@H](O)[C@H]3O[C@@H]3OC[C@](O)(CO)[C@H]3O)cc(O)c12` [APIIN], the “collision cross section (N2)” value ([M+H]+) is 229.3 Å².
Same read-out and setting: the value for `O=C1CCc2ccc(OCCCCN3CCN(c4cccc(Cl)c4Cl)CC3)cc2N1` [ARIPIPRAZOLE] was 203.5 Å²; that for `c1cc2c(cc1[C@H]1OC[C@H]3[C@@H]1CO[C@H]3c1ccc3c(c1)OCO3)OCO2` [ASARININ (-)] was 171 Å².
On to `CCCCCCCCCCCCCCCC(=O)OC[C@H](O)[C@H]1OC(=O)C(O)=C1O` [ASCORBYL PALMITATE], for which, for the setting “[M+H]+”, the “collision cross section (N2)” value was 204.8 Å².
Same read-out and setting: to `COC(=O)[C@H](Cc1ccccc1)NC(=O)[C@@H](N)CC(=O)O` [ASPARTAME] belongs 167.6 Å²; to `CC(C)=CCC/C(C)=C/COc1ccc2ccc(=O)oc2c1` [AURAPTENE], 158.3 Å²; to `COc1ccc(C(=O)CC(=O)c2ccc(C(C)(C)C)cc2)cc1` [AVOBENZONE], 181.2 Å².
Consider `C#CCCCCCCCCCCCC(O)CC(O)COC(C)=O` (stereo unspecified) [AVOCADYNE ACETATE], for which, for the setting “[M+Na]+”, the “collision cross section (N2)” value turned out to be 184 Å².
With `O=C(CCCN1CCN(c2ccccn2)CC1)c1ccc(F)cc1` [AZAPERONE], the “collision cross section (N2)” value ([M+H]+) was 180 Å².
The same measure, in the same setting: to `Cn1cnc([N+](=O)[O-])c1Sc1ncnc2nc[nH]c12` [AZATHIOPRINE] belongs 155.1 Å²; to `O=c1cc(-c2ccccc2)oc2cc(O)c(O)c(O)c12` [BAICALEIN], 153.8 Å².
`CCCCCCCCCCCCCCCCCCOCC(O)CO` (stereo unspecified) [BATYL ALCOHOL]: the “collision cross section (N2)” value ([M+Na]+) was found to be 202.8 Å².
As to `O=C(CCCl)NCc1ccccc1` [BECLAMIDE], where the note is “[M+H]+”, the “collision cross section (N2)” value worked out at 142.3 Å².
On the same count and under the same terms, the value for `NS(=O)(=O)c1cc2c(cc1C(F)(F)F)NC(Cc1ccccc1)NS2(=O)=O` (stereo unspecified) [BENDROFLUMETHIAZIDE] was 188.6 Å²; that for `O=C(Oc1cccc2cccnc12)c1ccccc1` [BENZOXIQUINE] was 153.8 Å².
Consider `C[N+](C)(CCOc1ccccc1)Cc1ccccc1` [BEPHENIUM], for which the “collision cross section (N2)” value ([M]+) is 162.3 Å².
Turning to `CN1CCc2cc3c(cc2[C@H]1[C@@H]1OC(=O)c2c1ccc1c2OCO1)OCO3` [BICUCULLINE (+)], the “collision cross section (N2)” value ([M+H]+) came to 180 Å².
Still for that read-out and setting: to `c1ccc(-c2ccc(C(c3ccccc3)n3ccnc3)cc2)cc1` (stereo unspecified) [BIFONAZOLE] belongs 184.8 Å²; to `O=C(/C=C/C(=O)Oc1ccccc1C(=O)O)Oc1ccccc1C(=O)O` [BISSALICYL FUMARATE], 171.1 Å²; to `O=C1C=CC2=C3c4cc(O)c(O)cc4CC3(O)COC2=C1` (stereo unspecified) [BRAZILEIN], 159.9 Å².
On the same count and under the same terms, to `CCCC1O[C@@H]2C[C@H]3[C@@H]4CCC5=CC(=O)C=C[C@]5(C)[C@H]4[C@@H](O)C[C@]3(C)[C@]2(C(=O)CO)O1` (stereo partly specified) [BUDESONIDE] belongs 204.6 Å².
Same read-out and setting: the value for `CC1=CC2C(C(C)C)CCC(C)(O)C2CC1` (stereo unspecified) [CADIN-4-EN-10-OL] was 145.9 Å²; that for `CC(=O)OCC1(O)CC23CCC4c5ccoc5CCC4(C)C2CCC1C3` (stereo unspecified) [CAFESTOL ACETATE] was 169.3 Å².
As for `NC(N)=NOCC[C@H](N)C(=O)O` [CANAVANINE], the “collision cross section (N2)” value ([M+H]+) amounted to 133.3 Å².
`CCCCCCCCCCCCCCC(C(=O)O)C(O)(CC(=O)OC)C(=O)O` (stereo unspecified) [CAPERATIC ACID]: the “collision cross section (N2)” value ([M+Na]+) was 211 Å².
Consider `NC(=O)N1c2ccccc2C=Cc2ccccc21` [CARBAMAZEPINE], for which the “collision cross section (N2)” value ([M+H]+) amounted to 149 Å².
With `C[C@@](Cc1ccc(O)c(O)c1)(NN)C(=O)O` [CARBIDOPA], the “collision cross section (N2)” value ([M+H]+) was found to be 142.4 Å².
Still for that read-out and setting: the value for `C=CC1=C(C(=O)O)N2C(=O)[C@@H](NC(=O)/C(=N\O)c3csc(N)n3)[C@H]2SC1` [CEFDINIR] was 190.5 Å²; that for `CO/N=C(\C(=O)N[C@@H]1C(=O)N2C(C(=O)OCOC(=O)C(C)(C)C)=C(/C=C\c3scnc3C)CS[C@H]12)c1csc(N)n1` [CEFDITORIN PIVOXIL] was 238 Å².
In the case of `COCC1=C(C(=O)OC(C)OC(=O)OC(C)C)N2C(=O)[C@@H](NC(=O)/C(=N\OC)c3csc(N)n3)[C@H]2SC1` (stereo partly specified) [CEFPODOXIME PROXETIL], the “collision cross section (N2)” value ([M+H]+) is 235.4 Å² and 228.3 Å².
With `OC[C@@H](O)[C@H]1O[C@@H]2O[C@H](C(Cl)(Cl)Cl)O[C@@H]2[C@H]1O` [CHLORALOSE], the “collision cross section (N2)” value ([M+H]+) turned out to be 163.2 Å².
Turning to `O=C(N[C@H](CO)[C@H](O)c1ccc([N+](=O)[O-])cc1)C(Cl)Cl` [CHLORAMPHENICOL], under “[M+H-H2O]+”, the “collision cross section (N2)” value is given as 163.9 Å².
Regarding `NS(=O)(=O)c1cc2c(cc1Cl)NC=NS2(=O)=O` [CHLOROTHIAZIDE], the “collision cross section (N2)” value ([M+H]+) is reported as 161 Å².
For the compound `Oc1c(Cl)cc(Cl)c2cccnc12` [CHLOROXINE], the “collision cross section (N2)” value ([M+H]+) came to 134.3 Å².
On the same count and under the same terms, to `CCOP(=S)(OCC)Oc1nc(Cl)c(Cl)cc1Cl` [CHLORPYRIFOS] belongs 201.7 Å².
Take `NS(=O)(=O)c1cc(C2(O)NC(=O)c3ccccc32)ccc1Cl` (stereo unspecified) [CHLORTHALIDONE]: where the note is “[M+H-H2O]+”, the “collision cross section (N2)” value was 166.7 Å².
Consider `CC(C)CCC[C@@H](C)[C@H]1CC[C@H]2[C@@H]3C=CC4=CC(=O)CC[C@]4(C)[C@H]3CC[C@]12C` [CHOLESTA-4,6-DIEN-3-ONE], for which, where the note is “[M+H]+”, the “collision cross section (N2)” value was determined as 208.3 Å².
For the compound `C[C@H](CCC(=O)O)[C@H]1CC[C@H]2[C@@H]3[C@H](O)C[C@@H]4C[C@H](O)CC[C@]4(C)[C@H]3C[C@H](O)[C@]12C` [CHOLIC ACID], the “collision cross section (N2)” value ([M+Na]+) stood at 195.6 Å².
Turning to `CC(C)=CC1C(C(=O)O)C1(C)C` (stereo unspecified) [CHRYSANTHEMIC ACID], the “collision cross section (N2)” value ([M+H]+) amounted to 130 Å².
Still for that read-out and setting: the value for `O=C(O)c1cc(-c2ccccc2)nc2ccccc12` [CINCHOPHEN] was 154.3 Å²; that for `CCn1nc(C(=O)O)c(=O)c2cc3c(cc21)OCO3` [CINOXACIN] was 148.5 Å².
Same read-out and setting: to `COc1cc(OC)c2ccc(=O)oc2c1` [CITROPTEN] belongs 138.3 Å²; to `Oc1c(I)cc(Cl)c2cccnc12` [CLIOQUINOL], 138.2 Å².
On the same count and under the same terms, to `Cc1[nH]c(C)c(Cl)c(=O)c1Cl` [CLOPIDOL] belongs 131.2 Å²; to `CN1CCN(C2=c3ccccc3=Nc3ccc(Cl)cc3N2)CC1` [CLOZAPINE], 177.5 Å²; to `COc1cc2c(c(OC)c1OC)-c1ccc(OC)c(=O)cc1[C@@H](NC(C)=O)CC2` [COLCHICINE], 194.5 Å².
As to `CC(=O)OCC(=O)[C@@]1(O)CC[C@H]2[C@@H]3CCC4=CC(=O)CC[C@]4(C)[C@H]3C(=O)C[C@@]21C` [CORTISONE ACETATE], under “[M+H]+”, the “collision cross section (N2)” value turned out to be 196.5 Å².
Same read-out and setting: the value for `O=c1ccc2ccccc2o1` [COUMARIN] was 122.2 Å²; that for `C/C=C/C(=O)N(CC)c1ccccc1C` [CROTAMITON] was 145.1 Å².
The same measure, in the same setting: the value for `CC(C)(O)CC[C@@H](O)[C@](C)(O)[C@H]1CC[C@@]2(O)C3=CC(=O)[C@@H]4C[C@@H](O)[C@@H](O)C[C@]4(C)[C@H]3CC[C@]12C` [CRUSTECDYSONE] was 221.3 Å².
Turning to `COc1cc(/C=C/C(=O)CC(=O)/C=C/c2ccc(O)c(OC)c2)ccc1O` [CURCUMIN], where the note is “[M+H]+”, the “collision cross section (N2)” value stood at 198.5 Å².
As for `CC1CC(OC(=O)C(O)c2ccccc2)CC(C)(C)C1` (stereo unspecified) [CYCLANDELATE], the “collision cross section (N2)” value ([M+Na]+) is listed as 186.2 Å².
Regarding `CN1CCN(C(c2ccccc2)c2ccccc2)CC1` [CYCLIZINE], the “collision cross section (N2)” value ([M+H]+) was found to be 164.8 Å².
On the same count and under the same terms, to `NC1=NCCN1CC(=O)O` [CYCLOCREATINE] belongs 124.3 Å²; to `CC(=O)O[C@]1(C(C)=O)CC[C@H]2[C@@H]3C=C(Cl)C4=CC(=O)[C@@H]5C[C@@H]5[C@]4(C)[C@H]3CC[C@@]21C` [CYPROTERONE ACETATE], 199.4 Å².
The same measure, in the same setting: the value for `Nc1ccn([C@@H]2O[C@H](CO)[C@@H](O)[C@@H]2O)c(=O)n1` [CYTARABINE] was 150.5 Å²; that for `O=c1cccc2n1C[C@@H]1CNC[C@H]2C1` [CYTISINE] was 137.9 Å²; that for `COc1cccc2c1C(=O)c1c(O)c3c(c(O)c1C2=O)C[C@@](O)(C(C)=O)C[C@@H]3O[C@H]1C[C@H](N)[C@H](O)[C@H](C)O1` [DAUNORUBICIN] was 222.9 Å².
On the same count and under the same terms, to `CC(=O)O[C@H]1C[C@@H](OC(C)=O)C(C)(C)C2CC(=O)[C@]3(C)C(CC[C@@]4(C)[C@H](C(=O)O)OC(=O)C5OC543)[C@]21C` (stereo partly specified) [DEACETOXY(7)-7-OXOKHIVORINIC ACID] belongs 212.6 Å².
As for `COc1cc2c(cc1OC)-c1c(oc3c4c(ccc3c1=O)OC(C(C)C)C4)CO2` (stereo unspecified) [DEHYDRODIHYDROROTENONE], under “[M+H]+”, the “collision cross section (N2)” value came out at 194.6 Å².
Still for that read-out and setting: to `COc1ccc2c(c1)OCc1c-2oc2cc(OC)ccc12` [DEHYDROVARIABILIN] belongs 159 Å².

The values are drawn from the C3SDB collision cross section collection.
